# Reference: patent US20250282799A1, “SUBSTITUTED PYRIDO[4,3-d]PYRIMIDINES AS KRAS MODULATORS” (Alterome Therapeutics, Inc., priority 2023, published 2025)
# Tested on: KRAS G12V dependent lung adenocarcinoma cell line, NCI-H441
# Assay: Cellular pERK (Thr202/Tyr204) FRET/HTRF assay
# Type: cell-based
# Conditions: Homo sapiens, NCI-H441, cellular pERK (Thr202/Tyr204) HTRF, NCI-H441 cells
# Summary of the method: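 Phospho-ERK1/2 (Thr202/Tyr204) quantified by two-antibody HTRF in lysed NCI-H441 cells. Cells seeded overnight, treated with test compounds for 1 hr at 37 °C against DMSO control, then lysed and detected at room temperature; IC50 obtained by curve fitting.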
row,IC50,Compound
1,< 50 nM,"[2H]C([2H])(Oc1nc(N2CCOC[C@H]3[C@H](F)[C@H]32)c2cc(C(F)(F)F)c(-c3ccc(F)c4sc(N)c(C#N)c34)c(F)c2n1)[C@@]12CCCN1C[C@H](F)C2 (atropisomer, axis not shown; (aS)) [Example 365, 2-amino-7-fluoro-4-((S)-8-fluoro-4-((1S,7S,8S)-8-fluoro-5-oxa-2-azabicyclo[5.1.0]octan-2-yl)-2-(((2R,7aS)-2-fluorotetrahydro-1H-pyrrolizin-7a(5H)-yl)methoxy-d2)-6-(trifluoromethyl)quinazolin-7-yl)benzo[b]thiophene-3-carbonitrile]"
2,< 50 nM,"[2H]C([2H])(Oc1nc(N2CCOC[C@H]3[C@H](F)[C@H]32)c2cnc(-c3cccc4ccc(C)c(C#C)c34)c(F)c2n1)[C@@]12CCCN1C[C@H](F)C2 [Example 325, (1S,7S,8S)-2-(7-(8-ethynyl-7-methylnaphthalen-1-yl)-8-fluoro-2-(((2R,7aS)-2-fluorotetrahydro-1H-pyrrolizin-7a(5H)-yl)methoxy-d2)pyrido[4,3-d]pyrimidin-4-yl)-8-fluoro-5-oxa-2-azabicyclo[5.1.0]octane]"
3,50 to 500 nM,"[2H]C([2H])(Oc1nc(N2CC[C@@H](C#N)C[C@H]3[C@@H](F)[C@H]32)c2cnc(-c3cc(N)cc4ccc(F)c(C#C)c34)c(F)c2n1)[C@@]12CCCN1C[C@H](F)C2 [Example 308, (1S,5S,7R,8R)-2-(7-(3-amino-8-ethynyl-7-fluoronaphthalen-1-yl)-8-fluoro-2-(((2R,7aS)-2-fluorotetrahydro-1H-pyrrolizin-7a(5H)-yl)methoxy-d2)pyrido[4,3-d]pyrimidin-4-yl)-8-fluoro-2-azabicyclo[5.1.0]octane-5-carbonitrile]"
4,< 50 nM,"[2H]C([2H])(F)Oc1c(F)ccc2cc(N)cc(-c3ncc4c(N5CCOC[C@H]6[C@H](F)[C@H]65)nc(OC[C@@]56CCCN5C[C@@]5(CC5(F)F)C6)nc4c3F)c12 (single isomer, unassigned) [Example 229]"
5,< 50 nM,"[2H]C([2H])(Oc1nc(N2CCOC[C@H]3[C@H](F)[C@H]32)c2cnc(-c3cccc4cccc(C#C)c34)c(F)c2n1)[C@@]12CCCN1C[C@H](F)C2 [Example 319, (1S,7S,8S)-2-(7-(8-ethynylnaphthalen-1-yl)-8-fluoro-2-(((2R,7aS)-2-fluorotetrahydro-1H-pyrrolizin-7a(5H)-yl)methoxy-d2)pyrido[4,3-d]pyrimidin-4-yl)-8-fluoro-5-oxa-2-azabicyclo[5.1.0]octane]"
6,500 to 10000 nM,"Cc1c(F)c(N)cc(-c2ncc3c(N4CCCC[C@@H]5[C@@H](F)[C@@H]54)nc(OC[C@@]45CCCN4C/C(=C\F)C5)nc3c2F)c1C(F)(F)F [Example 399, 2-fluoro-5-(8-fluoro-4-((1R,7S,8R)-8-fluoro-2-azabicyclo[5.1.0]octan-2-yl)-2-(((S,Z)-2-(fluoromethylene)tetrahydro-1H-pyrrolizin-7a(5H)-yl)methoxy)pyrido[4,3-d]pyrimidin-7-yl)-3-methyl-4-(trifluoromethyl)aniline]"
7,500 to 10000 nM,"[2H]C([2H])(Oc1nc(N2CCOC[C@H]3[C@H](F)[C@H]32)c2cc(F)c(-c3cc(N)cc(C)c3C(F)(F)F)c(F)c2n1)[C@@]12CCCN1C[C@H](F)C2 [Example 169, 3-(6,8-difluoro-4-((1S,7S,8S)-8-fluoro-5-oxa-2-azabicyclo[5.1.0]octan-2-yl)-2-(((2R,7aS)-2-fluorotetrahydro-1H-pyrrolizin-7a(5H)-yl)methoxy-d2)quinazolin-7-yl)-5-methyl-4-(trifluoromethyl)aniline]"
8,< 50 nM,"C#Cc1cccc2cc(O)cc(-c3ncc4c(N5CCOC[C@H]6[C@H](F)[C@H]65)nc(OC[C@@H]5CCCN5C)nc4c3F)c12 [Example 295, 5-ethynyl-4-(8-fluoro-4-((1S,7S,8S)-8-fluoro-5-oxa-2-azabicyclo[5.1.0]octan-2-yl)-2-(((S)-1-methylpyrrolidin-2-yl)methoxy)pyrido[4,3-d]pyrimidin-7-yl)naphthalen-2-ol]"
9,< 50 nM,"C#Cc1c(F)ccc2cccc(-c3ncc4c(N5CCOC[C@H]6[C@H](F)[C@H]65)nc(OC[C@@]56CCCN5C/C(=C\F)C6)nc4c3F)c12 [Example 130, (1S,7S,8S)-2-(7-(8-Ethynyl-7-fluoronaphthalen-1-yl)-8-fluoro-2-(((S,Z)-2-(fluoromethylene)tetrahydro-1H-pyrrolizin-7a(5H)-yl)methoxy)pyrido[4,3-d]pyrimidin-4-yl)-8-fluoro-5-oxa-2-azabicyclo[5.1.0]octane]"
10,< 50 nM,"[2H]C([2H])(Oc1nc(N2CCOC[C@H]3[C@H](F)[C@H]32)c2cnc(-c3cc(N)cc4ccc(F)c(C#C)c34)c(F)c2n1)[C@@]12CCCN1CC(F)(F)C2 [Example 220, 4-(2-(((S)-2,2-difluorotetrahydro-1H-pyrrolizin-7a(5H)-yl)methoxy-d2)-8-fluoro-4-((1S,7S,8S)-8-fluoro-5-oxa-2-azabicyclo[5.1.0]octan-2-yl)pyrido[4,3-d]pyrimidin-7-yl)-5-ethynyl-6-fluoronaphthalen-2-amine]"
11,50 to 500 nM,"Cc1c(F)c(N)cc(-c2ncc3c(N4CCCC[C@H]5[C@H](F)[C@H]54)nc(OC[C@]45C/C(=C/F)CN4CCC54CC4)nc3c2F)c1C(F)(F)F [Example 381, 2-fluoro-5-(8-fluoro-4-((1S,7R,8S)-8-fluoro-2-azabicyclo[5.1.0]octan-2-yl)-2-(((R,Z)-6′-(fluoromethylene)tetrahydrospiro[cyclopropane-1,1′-pyrrolizin]-7a′(5′H)-yl)methoxy)pyrido[4,3-d]pyrimidin-7-yl)-3-methyl-4-(trifluoromethyl)aniline]"
12,< 50 nM,"C#Cc1c(F)ccc2cc(N)cc(-c3ncc4c(N5CCOC[C@H]6[C@H](F)[C@H]65)nc(OC[C@@]56CCC(C)(C)N5C[C@H](F)C6)nc4c3F)c12 [Example 239, 5-ethynyl-6-fluoro-4-(8-fluoro-2-(((2R,7aS)-2-fluoro-5,5-dimethyltetrahydro-1H-pyrrolizin-7a(5H)-yl)methoxy)-4-((1S,7S,8S)-8-fluoro-5-oxa-2-azabicyclo[5.1.0]octan-2-yl)pyrido[4,3-d]pyrimidin-7-yl)naphthalen-2-amine]"
13,< 50 nM,"[2H]C([2H])(Oc1nc(N2CC=CC[C@H]3[C@H](F)[C@H]32)c2cnc(-c3cc(N)cc4ccc(F)c(C#C)c34)c(F)c2n1)[C@@]12CCCN1C[C@H](F)C2 [Example 174, 5-Ethynyl-6-fluoro-4-(8-fluoro-4-((1S,7R,8S)-8-fluoro-2-azabicyclo[5.1.0]oct-4-en-2-yl)-2-(((2R,7aS)-2-fluorotetrahydro-1H-pyrrolizin-7a(5H)-yl)methoxy-d2)pyrido[4,3-d]pyrimidin-7-yl)naphthalen-2-amine]"

# Same assay, conditions: Homo sapiens, NCI-H441, cellular pERK HTRF, NCI-H441 (KRAS G12V) cells
row,IC50,Compound
1,< 50 nM,"[2H]C([2H])(Oc1nc(N2CCOC[C@H]3[C@H](F)[C@H]32)c2cnc(-c3cc(N)cc4ccc(F)c(C#C)c34)c(C)c2n1)[C@@]12CCCN1CC(=C)C2 [Example 436, 5-Ethynyl-6-fluoro-4-(4-((1S,7S,8S)-8-fluoro-5-oxa-2-azabicyclo[5.1.0]octan-2-yl)-8-methyl-2-(((S)-2-methylenetetrahydro-1H-pyrrolizin-7a(5H)-yl)methoxy-d2)pyrido[4,3-d]pyrimidin-7-yl)naphthalen-2-amine]"

# Same assay, conditions: Homo sapiens, NCI-H441, pERK HTRF, NCI-H441 cells (KRAS G12V)
row,IC50,Compound
1,500 to 10000 nM,"[2H]C([2H])(Oc1nc(N2CCCCC[C@@H]3C[C@@H]32)c2cnc(-c3cc(N)cc4cc(F)c(F)c(C#C)c34)c(F)c2n1)[C@@]12CCCN1C[C@H](F)C2 [Example 55, 4-(4-((1S,8R)-2-azabicyclo[6.1.0]nonan-2-yl)-8-fluoro-2-(((2R,7aS)-2-fluorotetrahydro-1H-pyrrolizin-7a(5H)-yl)methoxy-d2)pyrido[4,3-d]pyrimidin-7-yl)-5-ethynyl-6,7-difluoronaphthalen-2-amine]"
2,500 to 10000 nM,"[2H]C([2H])(Oc1nc(N2CCCCC[C@@H]3[C@@H](F)[C@@H]32)c2cnc(-c3cc(N)cc4cc(F)c(F)c(C#C)c34)c(F)c2n1)[C@@]12CCCN1C[C@H](F)C2 [Example 59, 5-Ethynyl-6,7-difluoro-4-(8-fluoro-4-((1R,8S,9R)-9-fluoro-2-azabicyclo[6.1.0]nonan-2-yl)-2-(((2R,7aS)-2-fluorotetrahydro-1H-pyrrolizin-7a(5H)-yl)methoxy-d2)pyrido[4,3-d]pyrimidin-7-yl)naphthalen-2-amine]"

# Same assay, conditions: cellular pERK (Thr202/Tyr204) HTRF, NCI-H441 cells
row,IC50,Compound
1,500 to 10000 nM,"[2H]C([2H])(Oc1nc(N2CCOC[C@H]3[C@H](F)[C@H]32)c2cc(F)c(-c3cc(N)cc4ccc(F)c(C#C)c34)c(F)c2n1)[C@@]12CCCN1C[C@H](F)C2 (atropisomer, axis not shown; (aS)) [Example 400, 4-((S)-6,8-difluoro-4-((1S,7S,8S)-8-fluoro-5-oxa-2-azabicyclo[5.1.0]octan-2-yl)-2-(((2R,7aS)-2-fluorotetrahydro-1H-pyrrolizin-7a(5H)-yl)methoxy-d2)quinazolin-7-yl)-5-ethynyl-6-fluoronaphthalen-2-amine]"
2,< 50 nM,"[2H]C([2H])(Oc1nc(N2CCOC[C@H]3[C@H](F)[C@H]32)c2cc(Cl)c(-c3cc(N)cc4ccc(F)c(C#C)c34)c(F)c2n1)[C@@]12CCCN1C[C@H](F)C2 [Example 354, 4-(6-chloro-8-fluoro-4-((1S,7S,8S)-8-fluoro-5-oxa-2-azabicyclo[5.1.0]octan-2-yl)-2-(((2R,7aS)-2-fluorotetrahydro-1H-pyrrolizin-7a(5H)-yl)methoxy-d2)quinazolin-7-yl)-5-ethynyl-6-fluoronaphthalen-2-amine]"
